Data set [1] has as its system patients with a diagnosis of epilepsy. Particulars: human, in vivo. An excerpt:
In this study we have considered the known functional alleles *2 and *3 at the CYP2C9 gene, and the putatively functional 3435C>T polymorphism in the ABCB1 gene. As no common functional variants are known for SCN1A, we used a haplotype tagging strategy (Weale et al., Am J. Hum. Genet. 73, 551-565, 2003). […] For carbamazepine, we related variation in both SCN1A and ABCB1 to maximum dose in 425 patients. Finally, we tested for association with presence or absence of ADRs. […] In most, but not all cases the maximum dose used here will also be the maintenance dose, since starting doses tend to be lower than what is required (see discussion below).
The study was approved by the relevant institutional Ethics Committees. Patients who self-identified, or were determined by the treating physician, as being of North Western European origin with a diagnosis of epilepsy were recruited from the specialised epilepsy clinic of the National Hospital for Neurology and Neurosurgery after written informed consent was obtained. Extensive clinical data were obtained and stored in a computerized database. […]
The following clinical details were recorded whenever available: date when phenytoin/carbamazepine was started and stopped, maximum dosage reached, response and occurrence of ADRs. […]

In a further data set the target is CYP2C9*2 (Homo sapiens, UniProt P11712, R144C). The following applies: in vitro expression; cited from earlier work.
For data set [2] the following is noted: cited from earlier work; for Serum concentrations of phenytoin: single dose, healthy volunteers.
The target of a further data set is CYP2C9 (Homo sapiens, UniProt P11712). Particulars: estimated; cited from earlier work.

The source of these data is patent US20060269935A1, “Genetic predictor for clinical use of drugs used in the treatment of neurological conditions” (UCL Biomedica PLC, priority 2005, published 2006).

Like-named read-outs stand apart in the source and are kept apart here.

For the compound `NC(=O)N1c2ccccc2C=Cc2ccccc21` [carbamazepine, 5H-dibenz[b,f]azepine-5-carboxamide], the “Average dose range across genotypes” value in data set [1] stood at 230 mg.

With `O=C1NC(=O)C(c2ccccc2)(c2ccccc2)N1` [phenytoin, 5,5-diphenylhydantoin], the “Average dose range across genotypes” value in data set [1] stood at 127 mg. For the same compound, the “Reduction in phenytoin clearance compared to *1” value on CYP2C9*2 is given as 29% reduction in. Besides, the “Serum concentrations of phenytoin” value in data set [2] (*2 carriers) was “*2 carriers have increased serum”; in data set [2] (*3 carriers) it was “patients(33, 34) and increased serum”. Besides, the Maximal elimination rates entry in data set [2] (*3 carriers compared with *1/1 patients) is given as “*3 carriers have significantly lower”. Also, the “Share of phenytoin inactivation for which CYP2C9 is responsible” value on CYP2C9 is given as “up to 90%”.
